In assay [1] the target is T1, Tyrosine-protein phosphatase non-receptor type 1 (Homo sapiens, UniProt P18031).
T1 sequence (P18031 whole entry): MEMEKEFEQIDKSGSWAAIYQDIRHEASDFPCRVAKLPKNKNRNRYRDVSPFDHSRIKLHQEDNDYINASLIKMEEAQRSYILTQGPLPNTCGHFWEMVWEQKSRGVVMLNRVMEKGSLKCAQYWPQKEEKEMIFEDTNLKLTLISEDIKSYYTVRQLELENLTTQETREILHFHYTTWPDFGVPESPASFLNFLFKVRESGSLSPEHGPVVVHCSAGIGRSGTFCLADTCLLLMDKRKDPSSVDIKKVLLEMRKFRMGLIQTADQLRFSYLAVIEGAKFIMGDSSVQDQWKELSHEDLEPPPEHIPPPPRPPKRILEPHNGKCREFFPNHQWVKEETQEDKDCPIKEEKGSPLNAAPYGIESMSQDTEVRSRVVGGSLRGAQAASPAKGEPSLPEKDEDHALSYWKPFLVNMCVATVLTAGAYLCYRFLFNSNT
Put plainly: Inhibitory concentration towards recombinant human Protein-tyrosine phosphatase 1B was determined.

Assay [2] deals with T1, Tyrosine-protein phosphatase non-receptor type 1. Put plainly: Binding affinity towards recombinant human Protein-tyrosine phosphatase 1B was determined.

Each structure is given as a SMILES string. pIC50, pKi: −log10 of the molar value.

One may read the pIC50 as −log10 of the IC50, conventionally taken in molar units. For the compound `C[C@@H]1CCC[C@H](C)N1NC(=O)c1ccc(Cl)c(S(=O)(=O)NC(=O)c2ccc3cc(C(F)(F)P(=O)(O)O)ccc3c2)c1`, the pIC50 in assay [1] is 4.72.

With `O=C(NS(=O)(=O)Cc1ccccc1)c1ccc2cc(C(F)(F)P(=O)(O)O)ccc2c1`, the pIC50 in assay [1] was 4.62. Still for that read-out and setting: the value for `O=C(NS(=O)(=O)c1cc(C2(O)NC(=O)c3ccccc32)ccc1Cl)c1ccc2cc(C(F)(F)P(=O)(O)O)ccc2c1` (stereo not given) was 4.60. The same measure, in the same setting: the value for `O=C(NS(=O)(=O)c1ccccc1)c1ccc2cc(C(F)(F)P(=O)(O)O)ccc2c1` was 4.52. The pKi is the Ki on a negative log10 scale, so that one unit is a factor of ten. On to `CS(=O)(=O)NC(=O)c1ccc2cc(C(F)(F)P(=O)(O)O)ccc2c1`, for which, in assay [1], the pIC50 was 4.39. Also, the negative logarithm of the Ki (pKi) in assay [2] was 4.77. Turning to `CCN1CCCC1CNC(=O)c1cc(S(=O)(=O)NC(=O)c2ccc3cc(C(F)(F)P(=O)(O)O)ccc3c2)ccc1OC` (stereo not given), the pIC50 in assay [1] was 4.34. `CC1Cc2ccccc2N1NC(=O)c1ccc(Cl)c(S(=O)(=O)NC(=O)c2ccc3cc(C(F)(F)P(=O)(O)O)ccc3c2)c1` (stereo not given): in assay [1], the negative logarithm of the IC50 (pIC50) was 4.70. Same read-out and setting: to `CCCCCCCCCCCCCCCCOc1ccc(S(=O)(=O)NC(=O)c2ccc3cc(C(F)(F)P(=O)(O)O)ccc3c2)cc1[N+](=O)[O-]` belongs 6.46; to `CCCCCCCCCC(=O)Nc1ccc(S(=O)(=O)NC(=O)c2ccc3cc(C(F)(F)P(=O)(O)O)ccc3c2)cc1`, 4.74.
